# Test system: recombinant HLA-DR*0401
# Assay type: binding, human
sequence,measurement,value
IKNKIDGETTDYAAPV,affinity for HLA-DR*0401,high affinity

# Reference: publication PMC5808925 (Nature, 2017)
